Test [1] deals with S. aureus ATCC BAA-44 (a methicillin resistant S. aureus). The test is described as follows: Cell survival (colony forming unit) with or without illumination. Format: cell-based, Staphylococcus aureus. To be noted: S. aureus. As to the method:
(§1) The toxic effects of exemplary compounds of the invention against two bacterial strains, the Gram negative bacterium Escherichia coli (strain ATCC 25922) and the Gram positive bacterium Staphylococcus aureus (methicillin-resistant strain ATTC BAA-44), were evaluated by measuring the extent of growth inhibition (bacteriostatic effect) and growth […] (cytocidal effect) in the dark and upon light exposure. Initial compound screening was undertaken using white light [390-740 nm] (150 mW/cm^2) for various timepoints of a concentration of 3 μM (see Table 1). Further experiments were undertaken on those compounds identified from this initial screen using a light source emitting light at a wavelength between 417-420 nm at 15.2 mW/cm^2, 13.68 J/cm^2 (Waldmann Eclairage SA, France) (see Table 20.
For the further investigation of the exemplary compounds (Table 2), the following protocol was adopted: • (i) Bacteria (S. aureus BAA-44 and E. coli 25922) were grown in brain heart infusion (BHI) broth until they reached the stationary phase of growth. • (ii) The cells were harvested by centrifugation (3000 g for 15 min) with a table centrifuge, washed with 10 mM PBS at pH 7.4 containing 2.7 mM KCl and 0.14 M NaCl and suspended in PBS at an optical density of 0.7 at 650 nm corresponding to 10^8-10^9 cells/ml. • (iii) The bacteria, at the desired cell density (˜10^8 cells/ml) were incubated for 5 min in the dark with various concentrations of the exemplary compounds. • (iv) At the end of the incubation period the cells were washed three times with PBS, suspended in PBS, transferred into a 96-well microtitre plate (200 μl/well) and illuminated for 15 min with the Waldmann light source (15.2 mW/cm^2; 13.7 J/cm^2). The cells were illuminated from the bottom of the plate laying it on the glass cover of the lamp. • (v) After illumination, cell survival was determined by plating serially diluted aliquots of treated and untreated (i.e. no exemplary compound or light present) cells onto brain heart agar (BHA) and counting the number of colonies after 18-24 h incubation at 37° C.
the above colony forming unit (CFU) protocol was also used to investigate the photodynamic activity of very low concentrations of the compounds of the invention.

In test [2] the test system is Escherichia coli (strain ATCC 25922). The test is described as follows: Initial screening: growth inhibition after white light illumination. The format is cell-based. To be noted: Escherichia coli. As to the method:
as §1
(§2) The following protocol was used for the initial screening of the exemplary compounds (Table 1) (see Reddi et al., 2002, Photochem. Photobiol. 75(5):462-470): • (i) E. coli and S. aureus cells were grown overnight on brain heart infusion agar, resuspended in brain heart infusion broth, harvested by centrifugation (3000 g for 15 minutes) and washed once with phosphate buffered saline (PBS) at pH 7.4 consisting 2.7 mM KCl and 0.14 M NaCl. • (ii) The cells were then resuspended in PBS to an optical density at 650 nm of 0.7, which corresponds to a density of 10^8 to 10^9 cells/ml. • (iii) Next, the cells were incubated in PBS in the dark for 5 minutes with 3.0 μM of the compound to be tested. • (iv) After dark incubation, cells were illuminated with white light (wavelength: 390 to 740 nm) (150 mW/cm^2) for up to 30 minutes. During illumination, the cells were kept at 37° C. and magnetically stirred. • (v) Finally, treated and untreated (control) cells were diluted in brain heart infusion broth and maintained at […] while the absorbance of the suspension at 650 nm was monitored at predetermined time points for determining growth curves.
(§3) The percent of growth inhibition in the treated cells was calculated by the following equation: [1−(Ax−A0)/(Ac−A0)]×100 where Ax Ac are the absorbances measured after 3 hours incubation, for the treated and control cell suspensions, respectively, and A0 represents the initial absorbance.

The test system of test [3] is Staphylococcus aureus (methicillin-resistant strain ATTC BAA-44). Described as above. The format is cell-based. To be noted: Staphylococcus aureus. As to the method: as §1, §2, §3
The mark [4] stands for this setting: dark toxicity (no illumination), 1 μM.
[5] abbreviates: dark toxicity (no illumination), 10 μM.
Where [6] appears, read: photodynamic activity, 1 μM, illumination 15 min.

Like-named read-outs stand apart in the source and are kept apart here. Some results are limits rather than exact numbers.

What is called inhibition is the share of the control response that was lost under treatment.

Turning to `CCCCCCCCCCCOc1ccc(-c2c3nc(c(-c4ccc(OCCC[N+](C)(C)C)cc4)c4ccc([nH]4)c(-c4ccc(OCCC[N+](C)(C)C)cc4)c4nc(c(-c5ccc(OCCC[N+](C)(C)C)cc5)c5ccc2[nH]5)C=C4)C=C3)cc1.[Cl-].[Cl-].[Cl-]` [Compound 3, 5,10,15-tris-[4-(3-Trimethylammonio-propyloxy)-phenyl]-20-(4-undecyloxy-phenyl)-porphyrin trichloride, reference compound], the Log reduction in test [1] (setting [4]) is listed as <1 (<10^−1); in test [1] (setting [5]), >3 (>10^−3); in test [1] (setting [6]), >3 (>10^−3); in test [1] (photodynamic activity, 10 μM, illumination 15 min) it was >6 (>10^−6). Moreover, the inhibition at 3 µM was 99% in test [2] (ATCC25922, 5 min, read-out: Growth inhibition (%), E. coli, 5 min incubation, illumination time 5 min); 5% in test [2] (ATCC25922, read-out: Growth inhibition (%), E. coli, 5 min incubation, illumination time 0 min); 68% in test [2] (ATCC25922, read-out: Growth inhibition (%), E. coli, 5 min incubation, illumination time 1 min); 100% in test [2] (ATCC25922, read-out: Growth inhibition (%), E. coli, 5 min incubation, illumination time 10 min); 99% in test [2] (ATCC25922, read-out: Growth inhibition (%), E. coli, 5 min incubation, illumination time 15 min); 99% in test [2] (ATCC25922, read-out: Growth inhibition (%), E. coli, 5 min incubation, illumination time 30 min). Also, the inhibition at 3 µM in test [3] (BAA44, 5 min, read-out: Growth inhibition (%), S. aureus, 5 min incubation, illumination time 5 min) was 100%; in test [3] (BAA44, read-out: Growth inhibition (%), S. aureus, 5 min incubation, illumination time 0 min) it was 21%; in test [3] (BAA44, read-out: Growth inhibition (%), S. aureus, 5 min incubation, illumination time 1 min), 83%; in test [3] (BAA44, read-out: Growth inhibition (%), S. aureus, 5 min incubation, illumination time 10 min), 100%; in test [3] (BAA44, read-out: Growth inhibition (%), S. aureus, 5 min incubation, illumination time 15 min), 100%; in test [3] (BAA44, read-out: Growth inhibition (%), S. aureus, 5 min incubation, illumination time 30 min), 100%.
Regarding `CCCCCCCCCCCc1c2nc(cc3ccc([nH]3)c(-c3cc(OCCC[N+](C)(C)C)cc(OCCC[N+](C)(C)C)c3)c3nc(cc4ccc1[nH]4)C=C3)C=C2.[Cl-].[Cl-]` [Compound 6, 5-[3,5-bis-(3-Trimethylammonio-propyloxy)-phenyl]-15-undecyl-porphyrin dichloride], the Log reduction in test [1] (setting [4]) is 1 (<10^−1); in test [1] (setting [5]) it was 2 (10^−2); in test [1] (photodynamic activity, 0.1 μM, illumination 15 min) it was 3 (10^−3); in test [1] (setting [6]), 6 (10^−6). Further, the inhibition at 3 µM in test [2] (ATCC25922, 5 min, E. coli, 5 min incubation, illumination time 5 min, read-out: Growth inhibition (%)) was determined as 30%; in test [2] (ATCC25922, E. coli, 5 min incubation, illumination time 0 min, read-out: Growth inhibition (%)), 9%; in test [2] (ATCC25922, E. coli, 5 min incubation, illumination time 1 min, read-out: Growth inhibition (%)), 17%; in test [2] (ATCC25922, E. coli, 5 min incubation, illumination time 10 min, read-out: Growth inhibition (%)), 54%; in test [2] (ATCC25922, E. coli, 5 min incubation, illumination time 15 min, read-out: Growth inhibition (%)), 69%; in test [2] (ATCC25922, E. coli, 5 min incubation, illumination time 30 min, read-out: Growth inhibition (%)), 93%. The inhibition at 3 µM was 100% in test [3] (BAA44, 5 min, S. aureus, 5 min incubation, illumination time 5 min, read-out: Growth inhibition (%)); 29% in test [3] (BAA44, S. aureus, 5 min incubation, illumination time 0 min, read-out: Growth inhibition (%)); 100% in test [3] (BAA44, S. aureus, 5 min incubation, illumination time 1 min, read-out: Growth inhibition (%)); 100% in test [3] (BAA44, S. aureus, 5 min incubation, illumination time 10 min, read-out: Growth inhibition (%)); 100% in test [3] (BAA44, S. aureus, 5 min incubation, illumination time 15 min, read-out: Growth inhibition (%)); 100% in test [3] (BAA44, S. aureus, 5 min incubation, illumination time 30 min, read-out: Growth inhibition (%)).

These data come from US8084602B2, “Porphyrin derivatives and their use in photodynamic therapy” (Destiny Pharma Limited, priority 2002, dated 2011).
